This passage reports IC50 and Activity results from ChEMBL document CHEMBL1141448, “Curcumin induces high levels of topoisomerase I- and II-DNA complexes in K562 leukemia cells” (J Nat Prod, 2007).

SMILES strings stand for the structures. The source made the active and inactive calls. The calls are words filed in the database; no cut-off is given here. Bounds are passed on as bounds.

Assay [1] deals with K562. Description: Cytotoxicity against human K562 cells after 5 days by XTT assay. Format: functional, cell-based. To be noted: K562, 120 h. Background: Tetrazolium assays rely on reduction of a dye to a coloured formazan, in cell work by metabolically active cells.
Assay [2] deals with T1, DNA topoisomerase 1 (Homo sapiens) (UniProt P11387).
T1 sequence (whole entry): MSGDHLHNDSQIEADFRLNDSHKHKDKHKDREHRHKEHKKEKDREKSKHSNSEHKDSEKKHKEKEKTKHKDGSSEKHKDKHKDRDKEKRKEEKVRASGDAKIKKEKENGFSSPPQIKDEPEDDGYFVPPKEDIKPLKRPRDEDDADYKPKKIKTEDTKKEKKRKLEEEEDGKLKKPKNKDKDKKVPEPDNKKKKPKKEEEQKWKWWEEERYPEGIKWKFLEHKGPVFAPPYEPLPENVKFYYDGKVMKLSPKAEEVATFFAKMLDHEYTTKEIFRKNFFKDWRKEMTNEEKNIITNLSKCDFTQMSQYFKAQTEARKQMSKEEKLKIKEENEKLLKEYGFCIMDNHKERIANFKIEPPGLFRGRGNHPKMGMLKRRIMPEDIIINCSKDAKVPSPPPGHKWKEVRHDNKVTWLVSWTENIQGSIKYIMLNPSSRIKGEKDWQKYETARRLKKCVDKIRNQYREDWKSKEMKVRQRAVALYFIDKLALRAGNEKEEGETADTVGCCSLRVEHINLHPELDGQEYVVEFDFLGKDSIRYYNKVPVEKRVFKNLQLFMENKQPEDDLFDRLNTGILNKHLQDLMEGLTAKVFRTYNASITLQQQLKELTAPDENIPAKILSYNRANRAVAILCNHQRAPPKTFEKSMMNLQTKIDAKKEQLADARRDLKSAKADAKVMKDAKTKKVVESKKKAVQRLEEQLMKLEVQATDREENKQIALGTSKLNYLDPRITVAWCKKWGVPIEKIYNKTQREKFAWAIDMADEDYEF
The assay can be described thus: Reversal of drug-induced topoisomerase 1-DNA complex in presence of N-acetyl cysteine at 70 uM after 24 hrs.

The test system of assay [3] is K562. Description: Binding affinity to topoisomerase 2 in human K562 cells assessed as increase in […]-induced topoisomerase 2-DNA complex at 20-70 uM after 24 hrs by TARDIS assay. Format: cell-based.
Assay [4] deals with T1, DNA topoisomerase 1 (Homo sapiens). Description: Binding affinity to topoisomerase 1 in human K562 cells assessed as stability of topoisomerase 1-DNA complex at 70 uM after 48 hrs by TARDIS assay. The class given is cell-based.
The nature of assay [5]: Reversal of drug-induced topoisomerase 2-DNA complex in presence of N-acetyl cysteine at 70 uM after 24 hrs.
For assay [6], the system named is K562. The assay can be described thus: Binding affinity to topoisomerase 2 in human K562 cells assessed as increase in etoposide-induced topoisomerase 2-DNA complex at 20-70 uM after 24 hrs by TARDIS assay. Format: cell-based.
The subject of assay [7] is K562. Description: Binding affinity to topoisomerase 2 in human K562 cells assessed as stability of topoisomerase 2-DNA complex at 70 uM after 48 hrs by TARDIS assay. The class given is cell-based.

What is called IC50 is the concentration at which inhibition is half-maximal. High values mean lower potency, low ones higher potency. In the assay on K562 [1], `COc1cc(NS(C)(=O)=O)ccc1Nc1c2ccccc2nc2ccccc12` [AMSACRINE] gave an IC50 of 0.023 µM. This lies in the double-digit nanomolar range.

The compound `O=C1c2c(O)ccc(O)c2C(=O)c2c(NCCNCCO)ccc(NCCNCCO)c21` [MITOXANTRONE] yielded an IC50 in the assay on K562 [1] of 0.0026 µM.

The compound `COc1cc([C@@H]2c3cc4c(cc3[C@@H](O[C@@H]3O[C@@H]5CO[C@@H](C)O[C@H]5[C@H](O)[C@H]3O)[C@H]3COC(=O)[C@H]23)OCO4)cc(OC)c1O` [ETOPOSIDE] returned an IC50 in the assay on K562 [1] of 0.32 µM.

Regarding `COc1cc(/C=C/C(=O)O)ccc1O` [FERULATE], the IC50 in the assay with K562 [1] is more than 1000 µM.

Consider `COc1cc(/C=C/C(=O)CC(=O)/C=C/c2ccc(O)c(OC)c2)ccc1O` [CURCUMIN], for which the outcome (in assay [2]; in the assay with K562 [3]; in assay [4]; in assay [5]; in the assay on K562 [6]; in the assay on K562 [7]) was Active. The compound further had an IC50 with K562 [1] of 6.81 µM.

Consider `CC[C@@]1(O)C(=O)OCc2c1cc1n(c2=O)Cc2cc3ccccc3nc2-1` [CAMPTOTHECIN], for which the concentration for half-maximal inhibition (IC50) in the assay with K562 [1] stood at 0.04 µM.

In the assay on K562 [1], `CC(=O)[C@]1(O)Cc2c(O)c3c(c(O)c2[C@@H](O[C@H]2C[C@H](N)[C@H](O)[C@H](C)O2)C1)C(=O)c1ccccc1C3=O` [IDARUBICIN] came in with an IC50 of 0.012 µM.

Compound `O=C(CC(=O)c1ccccc1)c1ccccc1` [DIBENZOYLMETHANE] had an IC50 with K562 [1] of 30.9 µM.
